Assay [1] has as its system mexB (PA) strain. As to the kind of experiment: Combinational effect with antibacterial agent against Pseudomonas aeruginosa (Test Examples 2 and 4): mexB (PA) strain with LVFX, TC or AZT at 1/4 MIC, EC99. The format is cell-based. Conditions: for EC99, mexB (PA), AZT / EC99, mexB (PA), LVFX / EC99, mexB (PA), TC: Table 52, Test Example 2, 16 to 20 hours culture, OD595; for EC99, mexB (PA), AZT / EC99, combinational effect with AZT, mexB (PA): combined with AZT at 1/4 MIC; for EC99, mexB (PA), LVFX / EC99, combinational effect with LVFX, mexB (PA): combined with LVFX at 1/4 MIC; for EC99, mexB (PA), TC / EC99, combinational effect with TC, mexB (PA): combined with TC at 1/4 MIC; for EC99, combinational effect with AZT, mexB (PA) / EC99, combinational effect with LVFX, mexB (PA) / EC99, combinational effect with TC, mexB (PA): mexB (PA) strain, Test Example 4. On the procedure:
(§1) The combinational effect of the test compound with the antibacterial agent against Pseudomonas aeruginosa was evaluated.
For the evaluation of the inhibitory ability against MexAB-OprM, a mutant strain of Pseudomonas aeruginosa in which MexAB-OprM was expressed as a main drug efflux pump (hereinafter, referred to as a “mexB (PA) strain”) was used. LVFX, TC, or AZT was used as the antibacterial agent used in combination.
The mexB (PA) strain is a strain produced by deleting the genes of MexCD-OprJ, MexEF-OprN, and MexXY in the drug efflux pump of Pseudomonas aeruginosa described in FEMS Microbiology Letters, 2001, Vol. 202, pp. 139 to 143. In the mexB (PA) strain, an expression level of MexB as a drug efflux pump is accelerated.
TC is a tetracycline-based antibacterial agent and is a drug that is discharged outside the bacteria by MexB. AZT is a monobactam-based antibacterial agent and is a drug that is discharged outside the bacteria by MexB.
(§2) AMK and GM are aminoglycoside-based antibacterial agents, and are drugs that are not discharged outside the bacteria by MexB but are discharged outside the bacteria by MexY For the culture of each Pseudomonas aeruginosa strain, a 96-well plate (amount of culture medium per well: 100 μL) was used, and cation-adjusted Mueller Hinton broth (CAMHB) was used. The inoculation amount of the bacteria was set to 10^4 to 5 CFU/well.
(§3) The mexB (PA) strain and the S-3769 strain were cultured for 16 to 20 hours in a culture medium to which each antibacterial agent and test compounds at various concentrations (0 to 800 μM) were added, and the proliferation of the bacterial strains was evaluated by optical turbidity at 595 nm (OD595). The concentration of the antibacterial agent in the culture medium was set to ¼ MIC.
(§4) The proliferation of bacteria in a case where the test compound and the antibacterial agent were not added was measured, and compared with the proliferation of bacteria in a case where the test compound in a case where the antibacterial agent was added at the concentration of ¼ MIC was contained, and the lowest concentration of the test compound at which the proliferation was inhibited by 99% or more was defined as the drug efflux pump inhibitory ability of the test compound as 99% inhibitory effect concentration (EC99).
(§5) The effect of suppressing the proliferation of each test compound in combination with an antibacterial agent at ¼ MIC for mexB (PA) or the S-3769 strain was evaluated as follows according to the value of EC99. • S: EC99≤12.5 μM • A: 12.5 μM<EC99≤25 μM • B: 25 μM<EC99≤100 μM • C: 100 μM<EC99
(§6) The combinational effect of the test compound with the antibacterial agent against Pseudomonas aeruginosa was evaluated in the same manner as in Test Example 2.

Assay [2] has as its system S-3769 strain. As to the kind of experiment: Combinational effect with antibacterial agent against Pseudomonas aeruginosa (Test Examples 2 and 4): S-3769 strain with AMK or GM at 1/4 MIC, EC99. Format: cell-based. Conditions: for EC99, S-3769 strain, AMK / EC99, S-3769 strain, GM: Table 52, Test Example 2, 16 to 20 hours culture, OD595; for EC99, S-3769 strain, AMK / EC99, combinational effect with AMK, S-3769 strain: combined with AMK at 1/4 MIC; for EC99, S-3769 strain, GM / EC99, combinational effect with GM, S-3769 strain: combined with GM at 1/4 MIC; for EC99, combinational effect with AMK, S-3769 strain / EC99, combinational effect with GM, S-3769 strain: Test Example 4. On the procedure:
as §1
The […] was used for evaluating the inhibitory ability against MexXY-OprM. AMK or GM was used as the antibacterial agent used in combination.
The S-3769 strain is a clinically isolated strain collected from a domestic medical institution, and is a strain in which the expression level of MexY is accelerated.
as §2, §3, §4, §5, §6

Molecules are shown by their SMILES. Where a name gives a salt, the structure may show the parent alone.

Consider `CCOc1cccc(F)c1CN1CCN(C(=O)[C@H](N)C2CCN(CCc3cc(Cl)ccc3-c3cccc(C#N)c3)CC2)CC1` [Example 65, Hydrobromide of (R)-2′-(2-(4-(1-amino-2-(4-(2-ethoxy-6-fluorobenzyl)piperazin-1-yl)-2-oxoethyl)piperidin-1-yl)ethyl)-4′-chloro-[1,1′-biphenyl]-3-carbonitrile], for which, in assay [1], the “EC99, mexB (PA), AZT” value is listed as “B (25 μM<EC99≤100 μM)”; the “EC99, mexB (PA), LVFX” value is recorded as “C (100 μM<EC99)”; the “EC99, mexB (PA), TC” value is reported as “B (25 μM<EC99≤100 μM)”. Moreover, in assay [2], the “EC99, S-3769 strain, AMK” value is on record as “A (12.5 μM<EC99≤25 μM)” and the “EC99, S-3769 strain, GM” value is reported as “A (12.5 μM<EC99≤25 μM)”.

As to `CCOc1cccc(F)c1CN1CCN(C(=O)[C@H](N)C2CCN(CCc3cc(Cl)ccc3-c3cc(O)cc(Cl)c3)CC2)CC1` [Example 584, (R)-2-amino-2-(1-(2-(3′,4-dichloro-5′-hydroxy-[1,1′-biphenyl]-2-yl)ethyl)piperidin-4-yl)-1-(4-(2-ethoxy-6-fluorobenzyl)piperazin-1-yl)ethan-1-one], in assay [1], the “EC99, combinational effect with AZT, mexB (PA)” value (“EC99 … with AZT, mexB (PA)” below) is on record as “S (EC99≤12.5 μM)”; the “EC99, combinational effect with LVFX, mexB (PA)” value (from here on “EC99 … with LVFX, mexB (PA)”) is given as “S (EC99≤12.5 μM)”; the “EC99, combinational effect with TC, mexB (PA)” value (“EC99 … with TC, mexB (PA)” below) is “S (EC99≤12.5 μM)”. Further, in assay [2], the “EC99, combinational effect with AMK, S-3769 strain” value (“EC99, combinational effect with AMK” for short) is listed as “S (EC99≤12.5 μM)” and the “EC99, combinational effect with GM, S-3769 strain” value (from here on “EC99, combinational effect with GM”) was “S (EC99≤12.5 μM)”.

Take `CCOc1cccc(F)c1CN1CCN(C(=O)[C@H](N)C2CCN(CCc3cc(Cl)ccc3-c3cccc(C)c3)CC2)CC1` [Example 68, Hydrobromide of (R)-2-amino-2-(1-(2-(4-chloro-3′-methyl-[1,1′-biphenyl]-2-yl)ethyl)piperidin-4-yl)-1-(4-(2-ethoxy-6-fluorobenzyl)piperazin-1-yl)ethan-1-one]: in assay [1], the “EC99, mexB (PA), AZT” value is “B (25 μM<EC99≤100 μM)”; the “EC99, mexB (PA), LVFX” value is on record as “B (25 μM<EC99≤100 μM)”; the “EC99, mexB (PA), TC” value is reported as “B (25 μM<EC99≤100 μM)”. Further, in assay [2], the “EC99, S-3769 strain, AMK” value is recorded as “A (12.5 μM<EC99≤25 μM)” and the “EC99, S-3769 strain, GM” value is reported as “A (12.5 μM<EC99≤25 μM)”.

Consider `CCSc1cc(F)ccc1CN1CCN(C(=O)[C@H](N)C2CCN(CCc3cc(Cl)ccc3C3=CCNCC3)CC2)CC1` [Example 597, hydrochloride of (R)-2-amino-2-(1-(5-chloro-2-(1,2,3,6-tetrahydropyridin-4-yl)phenethyl)piperidin-4-yl)-1-(4-(2-(ethylthio)-4-fluorobenzyl)piperazin-1-yl)ethan-1-one], for which, in assay [1], the “EC99 … with AZT, mexB (PA)” value is recorded as “B (25 μM<EC99≤100 μM)”; the “EC99 … with LVFX, mexB (PA)” value is reported as “S (EC99≤12.5 μM)”; the “EC99 … with TC, mexB (PA)” value was “S (EC99≤12.5 μM)”. For the same compound, in assay [2], the “EC99, combinational effect with AMK” value is “S (EC99≤12.5 μM)” and the “EC99, combinational effect with GM” value was “S (EC99≤12.5 μM)”.

Regarding `CCSc1ncccc1CN1CCN(C(=O)[C@H](N)C2CCN(CCc3cc(Cl)ccc3-c3ccccc3)CC2)CC1` [Example 535, Hydrobromide of (R)-2-amino-2-(1-(2-(4-chloro-[1,1-biphenyl]-2-yl)ethyl)piperidin-4-yl)-1-(4-((2-(ethylthio)pyridin-3-yl)methyl)piperazin-1-yl)ethan-1-one], in assay [1], the “EC99 … with AZT, mexB (PA)” value was “B (25 μM<EC99≤100 μM)”; the “EC99 … with LVFX, mexB (PA)” value is recorded as “A (12.5 μM<EC99≤25 μM)”; the “EC99 … with TC, mexB (PA)” value is listed as “B (25 μM<EC99≤100 μM)”. Moreover, in assay [2], the “EC99, combinational effect with AMK” value was “B (25 μM<EC99≤100 μM)” and the “EC99, combinational effect with GM” value is listed as “B (25 μM<EC99≤100 μM)”.

The values above are taken from patent US20250326744A1, “PIPERAZINE DERIVATIVE OR SALT THEREOF, AND PHARMACEUTICAL COMPOSITION” (priority 2022, published 2025).
